Reference: US8067432B2, “Liposomal, ring-opened camptothecins with prolonged, site-specific delivery of active drug to solid tumors” (University of Kentucky Research Foundation, priority 2008, dated 2011)

Experiments:
[1] = compared with FDA approved camptothecin analogs (e.g., Camptosar and Hycamtin); cited from earlier work
[2] = Lactone/carboxylate equilibrium in aqueous solution at physiological pH; type: physicochemical; conditions: physiological pH (7.4)
[3] = Lactone/carboxylate form and lactone half-life in plasma; type: in vitro ADME, rat

SMILES	Potency in in vitro cytotoxicity assays [1]	Fraction in the carboxylate form [2]	Fraction in lactone (active) form ([3]; in plasma)	half-life ([3]; rat plasma)
CC[C@@]1(O)C(=O)OCc2c1cc1n(c2=O)Cc2c-1nc1ccc(O)cc1c2[Si](C)(C)C(C)(C)C [DB-67, 7-t-butyldimethylsilyl-10-hydroxycamptothecin]	at least comparable potency			
CC[C@@]1(O)C(=O)OCc2c1cc1n(c2=O)Cc2cc3ccccc3nc2-1 [camptothecin]		approximately 70%	~30%	~40 min
